We go through 10 compounds from ChEMBL document CHEMBL1201862, “PubChem BioAssay data set” (2004).

Among the test systems are RXF 393; SK-OV-3; BT-549; KM12; SK-MEL-5; DU-145; HL-60; HT-29; LOX IMVI; HCT-116; Malme-3M; UACC-257; PC-3; T47D; UO-31; NCI-H522; Hs-578T; NCI-H460; MOLT-4; ACHN.
Common to all, as to test: inhibition of tumour cell growth, NCI panel, 48 h

The structures appear in SMILES notation.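 Five concentrations, 48 hours, 96-well plates. The concentration for 50% growth inhibition is given as GI50.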 The source made the active and inactive calls. Cut-off read from the data, not from the text of the source: active = GI50 up to about 1.1 µM and inactive = higher.

Consider `COc1cc(/C=N/c2nc3cc4sc(/N=C/c5cc(OC)c(OC)c(OC)c5)nc4cc3s2)cc(OC)c1OC`, for which the GI50 was > 100 µM (inactive) in the experiment on RXF 393; > 100 µM (inactive) in the experiment with SK-OV-3; > 100 µM (inactive) with BT-549; 52.1 µM (inactive) in the experiment on KM12; 37.1 µM (inactive) in the experiment on SK-MEL-5; > 100 µM (inactive) in the experiment on DU-145. Besides, the GI50 in the experiment with HL-60 is 57.1 µM (inactive); in the experiment on HT-29, 52.7 µM (inactive); in the experiment with LOX IMVI it was 42.9 µM (inactive); with HCT-116, 39.4 µM (inactive); with Malme-3M, > 100 µM (inactive); in the experiment with UACC-257 it was 73.6 µM (inactive). Besides, the GI50 was 52.1 µM (inactive) in the experiment with PC-3; 51.1 µM (inactive) in the experiment on T47D; 62.8 µM (inactive) in the experiment with UO-31; 45.8 µM (inactive) with NCI-H522; > 100 µM (inactive) in the experiment on Hs-578T; 21.5 µM (inactive) with NCI-H460. Further, the GI50 in the experiment with MOLT-4 is 31.3 µM (inactive); with ACHN, > 100 µM (inactive).

As to `CCCCCC/C=C\CCCCCCCCCC1=CC(=O)C=C(OC)C1=O` [IRISQUINONE A], the GI50 in the experiment on RXF 393 was 3.01 µM (inactive); in the experiment with SK-OV-3, 4.36 µM (inactive); in the experiment on BT-549, 2.16 µM (inactive); with KM12 it was 3.75 µM (inactive); with SK-MEL-5, 2.54 µM (inactive); with DU-145 it was 5.62 µM (inactive). Besides, the GI50 was 1.88 µM (inactive) with HL-60; 3.19 µM (inactive) in the experiment on HT-29; 4.06 µM (inactive) in the experiment with LOX IMVI; 3.43 µM (inactive) in the experiment on HCT-116; 12.3 µM (inactive) in the experiment on Malme-3M; 3.28 µM (inactive) in the experiment on UACC-257. For the same compound, the GI50 in the experiment with PC-3 is 1.81 µM (inactive); in the experiment with T47D, 2.23 µM (inactive); with UO-31, 4.57 µM (inactive); with NCI-H522, 2 µM (inactive); in the experiment on Hs-578T, 7.36 µM (inactive); in the experiment on NCI-H460, 2.72 µM (inactive). Moreover, the GI50 in the experiment on MOLT-4 was 3.79 µM (inactive); in the experiment with ACHN, 3.18 µM (inactive).

With `CC(=O)OC1CC(n2cc(F)c(=O)[nH]c2=O)OC1CO` (stereo not given), the GI50 is 22.2 µM (inactive) in the experiment with RXF 393; 61.1 µM (inactive) in the experiment with SK-OV-3; 5.5 µM (inactive) in the experiment on BT-549; > 93.3 µM (inactive) in the experiment on KM12; 1.49 µM (inactive) in the experiment with SK-MEL-5; 1.15 µM (inactive) in the experiment on DU-145. Besides, the GI50 was 4.31 µM (inactive) with HL-60; 19.9 µM (inactive) in the experiment on HT-29; 0.324 µM (active) in the experiment with LOX IMVI; 2.51 µM (inactive) in the experiment on HCT-116; 18 µM (inactive) in the experiment on Malme-3M; 49.1 µM (inactive) in the experiment on UACC-257. The GI50 is 16.9 µM (inactive) in the experiment on PC-3; 12.1 µM (inactive) in the experiment with T47D; 0.635 µM (active) in the experiment with UO-31; 2.15 µM (inactive) in the experiment on NCI-H522; 7.4 µM (inactive) with Hs-578T; 0.0177 µM (active) in the experiment with NCI-H460. Further, the values for the GI50 in the experiment with MOLT-4 and in the experiment on ACHN were 1.08 µM (active) and 0.0585 µM (active), respectively.

Take `CCOC(=O)c1ccc(-c2cccs2)[nH]1`: the GI50 in the experiment on RXF 393 is > 66.4 µM (inactive); with SK-OV-3, > 62.7 µM (inactive); in the experiment with BT-549, > 63.1 µM (inactive); in the experiment with KM12 it was > 100 µM (inactive); in the experiment on SK-MEL-5 it was 30.8 µM (inactive); in the experiment on DU-145, 49 µM (inactive). In addition, the GI50 was 38.8 µM (inactive) in the experiment with HL-60; 54 µM (inactive) in the experiment with HT-29; > 100 µM (inactive) in the experiment on LOX IMVI; 68.5 µM (inactive) in the experiment with HCT-116; 63.4 µM (inactive) in the experiment with Malme-3M; 91.6 µM (inactive) in the experiment on UACC-257. In addition, the GI50 with PC-3 is 72.6 µM (inactive); with T47D, 31.6 µM (inactive); with UO-31, 50 µM (inactive); in the experiment with NCI-H522, 32.7 µM (inactive); in the experiment with Hs-578T it was 76.9 µM (inactive); in the experiment on NCI-H460, > 100 µM (inactive). Further, the results for the GI50 with MOLT-4 and in the experiment with ACHN were 51.4 µM (inactive) and 78.9 µM (inactive), respectively.

With `NNC(=O)c1ccccc1Nc1ccccc1C(=O)NN`, the GI50 with RXF 393, in the experiment with SK-OV-3, in the experiment on BT-549, in the experiment on KM12, in the experiment with SK-MEL-5 and in the experiment on DU-145 was > 100 µM (inactive) throughout. Besides, the GI50 in the experiment on HL-60, in the experiment with HT-29, with LOX IMVI, in the experiment with HCT-116, in the experiment with Malme-3M and in the experiment with UACC-257 was > 100 µM (inactive) in each case. Further, the GI50 with PC-3 was > 100 µM (inactive); with T47D, > 100 µM (inactive); in the experiment on UO-31, > 100 µM (inactive); with NCI-H522, > 100 µM (inactive); with Hs-578T, 92.9 µM (inactive); in the experiment with NCI-H460, > 100 µM (inactive). The GI50 with MOLT-4 and in the experiment with ACHN was > 100 µM (inactive) each time.

As for `COc1cc(C2c3cc4c(cc3OC(NCCc3ccccc3)C2C)OCO4)cc(OC)c1OC` (stereo not given), the GI50 was 0.203 µM (active) with RXF 393; 0.397 µM (active) in the experiment on SK-OV-3; 0.617 µM (active) in the experiment on BT-549; 0.316 µM (active) in the experiment with KM12; 0.224 µM (active) in the experiment with SK-MEL-5; 0.431 µM (active) with DU-145. For the same compound, the GI50 in the experiment with HL-60 was 0.208 µM (active); in the experiment on HT-29, 0.321 µM (active); in the experiment with LOX IMVI, 0.497 µM (active); in the experiment with HCT-116, 0.409 µM (active); in the experiment with Malme-3M it was 0.231 µM (active); in the experiment on UACC-257, 6.34 µM (inactive). Besides, the GI50 in the experiment with PC-3 was 0.336 µM (active); with T47D it was 0.295 µM (active); in the experiment with UO-31, 0.457 µM (active); in the experiment on NCI-H522 it was 0.248 µM (active); in the experiment with Hs-578T, 0.138 µM (active); in the experiment on NCI-H460 it was 0.418 µM (active). Besides, the GI50 is 0.515 µM (active) in the experiment on MOLT-4 and 1.36 µM (inactive) in the experiment with ACHN.

For `COC(=O)NC1C(C)OC(OC2C/C=C(/C)C3C=CC4C(OC5CC(OC6CCC(OC7CC(O)C(OC8CCC(O)C(C)O8)C(C)O7)C(C)O6)C(OC(C)=O)C(C)O5)C(C)CC(C)C4C3(C)/C(O)=C3/C(=O)OC4(CC(C=O)=CC(O)C4/C=C\2C)C3=O)CC1(C)[N+](=O)[O-]` (stereo not given), the GI50 in the experiment on RXF 393 is 0.551 µM (active); in the experiment on SK-OV-3, 2.44 µM (inactive); with BT-549 it was 1.04 µM (active); with KM12 it was 0.809 µM (active); in the experiment on SK-MEL-5, 0.82 µM (active); in the experiment on DU-145, 1.58 µM (inactive). In addition, the GI50 in the experiment on HL-60 was 1.24 µM (inactive); in the experiment with HT-29 it was 1.1 µM (active); in the experiment with LOX IMVI, 0.397 µM (active); in the experiment on HCT-116, 0.69 µM (active); with Malme-3M, 0.421 µM (active); in the experiment with UACC-257 it was 0.724 µM (active). For the same compound, the GI50 was 1.57 µM (inactive) in the experiment with PC-3; 2.06 µM (inactive) with T47D; 1.68 µM (inactive) in the experiment on UO-31; 0.824 µM (active) in the experiment with NCI-H522; 0.282 µM (active) in the experiment on Hs-578T; 0.778 µM (active) in the experiment on NCI-H460. In addition, the GI50 with MOLT-4 is 0.474 µM (active); with ACHN, 1.02 µM (active).

With `OC1C2[C@@H](O)CCCN2C[C@@H](O)[C@H]1O` (stereo not given in full), the GI50 with RXF 393, in the experiment on SK-OV-3, with BT-549, in the experiment on KM12, with SK-MEL-5 and with DU-145 was > 100 µM (inactive) throughout. Further, the GI50 in the experiment with HL-60, in the experiment with HT-29, in the experiment with LOX IMVI, in the experiment on HCT-116, with Malme-3M and with UACC-257 was > 100 µM (inactive) throughout. Also, the GI50 in the experiment with PC-3 was > 100 µM (inactive); in the experiment with T47D, > 100 µM (inactive); with UO-31, > 100 µM (inactive); in the experiment on NCI-H522 it was 71.1 µM (inactive); in the experiment on Hs-578T it was > 100 µM (inactive); in the experiment on NCI-H460, > 100 µM (inactive). In addition, the GI50 in the experiment with MOLT-4 and with ACHN was > 100 µM (inactive) in each case.

For `O=C(C(Cl)=C(N1CCCCC1)N1CCCCC1)C(Cl)Cl`, the GI50 with RXF 393, in the experiment on SK-OV-3, in the experiment with BT-549, with KM12, with SK-MEL-5 and in the experiment with DU-145 was > 100 µM (inactive) each time. In addition, the GI50 in the experiment on HL-60, in the experiment with HT-29, with LOX IMVI, in the experiment on HCT-116, in the experiment with Malme-3M and with UACC-257 was > 100 µM (inactive) each time. Also, the GI50 in the experiment with PC-3, in the experiment with T47D, with UO-31, in the experiment with NCI-H522, with Hs-578T and in the experiment on NCI-H460 was > 100 µM (inactive) throughout. Further, the GI50 in the experiment on MOLT-4 and in the experiment on ACHN was > 100 µM (inactive) throughout.

With `NC1=CN(CCCO)C2=N/C(=C\c3ccco3)C(=O)N12`, the GI50 in the experiment on RXF 393, with SK-OV-3, in the experiment with BT-549, with KM12, with SK-MEL-5 and in the experiment on DU-145 was > 100 µM (inactive) each time. Further, the GI50 in the experiment on HL-60 was > 100 µM (inactive); in the experiment with HT-29, > 100 µM (inactive); in the experiment with LOX IMVI it was > 100 µM (inactive); in the experiment on HCT-116, > 100 µM (inactive); in the experiment on Malme-3M, > 100 µM (inactive); in the experiment with UACC-257, 48.9 µM (inactive). Also, the GI50 is > 100 µM (inactive) with PC-3; > 100 µM (inactive) with T47D; 94 µM (inactive) in the experiment with UO-31; > 100 µM (inactive) with NCI-H522; > 100 µM (inactive) in the experiment on Hs-578T; > 100 µM (inactive) in the experiment with NCI-H460. Further, the GI50 in the experiment with MOLT-4 and in the experiment with ACHN was > 100 µM (inactive) in each case.
